Reference: patent US6693167B1, “Peptide-based gemini compounds” (SmithKline Beecham p.l.c., priority 1997, dated 2004)

Legend:
Format in all cases: cell-based
CHO-K1 cells [1] = assay: Transfection of luciferase plasmid into CHO-K1 cells
Experimental: CHO-K1 cells (ATCC: CRL-9618) were seeded into T25-culture flasks (Corning-Costar Buckinghamshire, UK), at 7×10^5 cells per flask, 24 hours prior to transfection. The CHO-K1 cells were seeded in 5 ml MEM alpha medium with ribonucleosides and deoxyribonucleosides and supplemented with 1×L-glutamine and 10% v/v foetal bovine serum (complete medium). The cells were grown at 37° C. in 5% CO2 in a humidified atmosphere.
For transfection, 5 ug DNA (luciferase control plasmid) was incubated with the gemini compounds in water (final volume 400 μl). The peptide-based gemini compounds were made up at 1 mg ml^−1 in tissue culture grade water and then diluted to the appropriate concentration to a total volume of 200 μl. Following a 30 minute room temperature incubation, 2.6 ml OPTI-MEM® medium was added and the solution placed on the cells. Following an overnight incubation at 37° C., the transfection solution was replaced with complete medium and the cells incubated at 37° C. 24 hours post transfection the cells were detached from the flask and seeded into 96-well plates at a density of 0.5×10^5 cells per well and incubated for a further 24 hours at 37° C. Luciferase reporter gene assays were performed according to the manufacturers instructions (Roche Diagnostics, Mannheim, Germany) approximately 48 hours post transfection. The plates were left for a 15 minutes adaption period in the dark before counting for 60 seconds in a TopCount NXT counter (Canberra Packard). An average of eight wells were counted per transfection.
Control transfections were set up with no DNA, an anionic gemini compound and the commercially available reagent LipofectAmine PLUS™.

HEK293 cells = assay: Transfection of luciferase plasmid into HEK293 cells
Experimental: All tissue culture reagents were obtained from Life Technologies Inc. HEK 293 cells were seeded at 2-3×10^5 cells per well in Nunc six-well culture plates, 24 hours prior to transfection. The cells were seeded in 2 mls Dulbeccos Modified Eagle medium containing Earles salts and supplemented with 10% v/v foetal bovine serum (=complete medium). The cells were grown at 37° C. in 5% CO2 in a humidified atmosphere. 6 ug DNA (“luciferase control plasmid” from Promega Corp.) were dissolved in 100 ul serum free medium (OPTI-MEM®). The peptide-based gemini compounds were made up at 1 mg/ml in tissue culture grade water and then diluted in OPTI-MEM® to the appropriate concentration to a final volume of […]. The DNA and gemini solutions were mixed (to a total volume of 200 ul; final concentrations of 5, 25, 50, 100, 150, 200, 250 and 300 ug/ml) and left at room temperature for 15 minutes. The DNA/gemini mix was placed onto the cells in each well and left in contact for 18-20 hours. The cells were then washed twice with phophate buffered saline prior to 1 ml of fresh complete medium being added. Cells were incubated for a further 24 hours prior to lysis and luciferase activity assayed.
All luciferase activity assays were performed using the Canberra Packard (Berkshire, UK) Luclite kit according to the manufacturer's instructions with the exception that the cells in each well were resuspended in 1 ml lysis buffer and 10 ul aliquots mixed with 100 ul of the luciferase substrate. The reaction mix was left for a 15 minutes adaptation period in the dark before counting for 5 minutes in a Top Count scintillation counter. Luciferase activity is measured as counts per second (CPS) from the scintillation counter. Four independent counts were taken per well.
Control transfections were set up with no DNA, CaPO4, an anionic gemini compound (1) and the commercially available lipofection reagents LipofectAmine™ and Lipotaxi™ at the manufacturers recommended concentrations (10, 25, 50, 75, 125 ug/ml and 175, 250, 325, 400 and 500 ug/ml respectively).

CHO-K1 cells [2] = assay: Transfection of luciferase plasmid into CHO-K1 cells in combination with supplements (DOPE, PLUS)
Experimental: The transfection ability of the gemini compounds could be further enhanced by the addition of a neutral carrier, for example, dioleyl phosphatidylethanolamine (DOPE) (Farhood, H., et al (1985) Biochim. Biophys. Acta 1235 289) or a complexing reagent, for example, PLUS compound (Life Technologies Inc.). […] Transfection mediated by compound 55 with DOPE in a 2:1 ratio and the addition of 11.6 ul of PLUS compound lead to a mean count of 6.5×10^5 cps representing a 12-fold increase of luciferase activity in comparison to compound 55 alone. Incubation of the PLUS compound with the DNA and combination with compound 55 alone also lead to a 4-fold increase.

[3] = compound 55 with DOPE 2:1 plus 11.6 ul PLUS compound

In the case of `CCCCCCCCCCCCNC(=O)C(CO)NC(=O)C(CSCCSCC(NC(=O)C(N)CCCCNC(=O)C(N)CCCCN)C(=O)NC(CO)C(=O)NCCCCCCCCCCCC)NC(=O)C(N)CCCCNC(=O)C(N)CCCCN.Cl.Cl.Cl.Cl` (stereo not shown) [Compound 55], the “Efficiency in facilitating transfection of the luciferase plasmid” value (CHO-K1 cells [1]) was “very efficient”, the “Luciferase activity, mean count at most effective concentration” value (CHO-K1 cells [1]; 5 ug luciferase control plasmid, mean of 8 wells) was “about 2.4×10^5 cps” and the Most effective (peak) concentration for transfection (CHO-K1 cells [1]; luciferase control plasmid) was 30 µM. For the same compound, the “Efficiency in facilitating transfection of the luciferase plasmid” value (HEK293 cells; at concentrations above 150 ug/ml) was “very efficient”, the “Most effective (peak) concentration for transfection” value (HEK293 cells; luciferase control plasmid) was 300 µg/mL and the “Luciferase activity, mean count at peak efficiency” value (HEK293 cells; luciferase control plasmid, at the agent's most effective concentration, mean of 4 independent counts) was “about 45,000 cps”. The “Increase of luciferase activity” value (CHO-K1 cells [2]; PLUS compound incubated with the DNA, combined with compound 55 alone (no DOPE)) was 4 fold, the “Increase of luciferase activity” value (CHO-K1 cells [2]; compound 55 and DOPE at 2:1 ratio) was 9 fold and the “Increase of luciferase activity in comparison to compound 55 alone” value (CHO-K1 cells [2]; [3]) was 12 fold. For the same compound, the “Luciferase activity, mean count” value (CHO-K1 cells [2]; [3]) was 6.5×10^5 cps.
